# Data reported in PubChem BioAssay AID652225 (The Scripps Research Institute Molecular Screening Center, 2013).
# pIC50: −log10 of the molar value. Active and inactive are the calls of the source.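 How the source made its calls: active means compounds inhibiting PP5 with an IC50 below 50 µM; inactive means IC50 of 50 µM or more.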
# Target: Serine/threonine-protein phosphatase 5 (Homo sapiens) (UniProt P53041)
# Assay: human PP5c inhibitor potency, radiometric – biochemical, radiolabel, glycogen phosphorylase substrate, set 2, selectivity assay for PP1 inhibitor project, late-stage follow-up (AID 652225)
# Settings: purified PP5c, 32P-glycogen phosphorylase dephosphorylation, scintillation
# Sequence of Serine/threonine-protein phosphatase 5 (Homo sapiens) (P53041 whole entry, looked up): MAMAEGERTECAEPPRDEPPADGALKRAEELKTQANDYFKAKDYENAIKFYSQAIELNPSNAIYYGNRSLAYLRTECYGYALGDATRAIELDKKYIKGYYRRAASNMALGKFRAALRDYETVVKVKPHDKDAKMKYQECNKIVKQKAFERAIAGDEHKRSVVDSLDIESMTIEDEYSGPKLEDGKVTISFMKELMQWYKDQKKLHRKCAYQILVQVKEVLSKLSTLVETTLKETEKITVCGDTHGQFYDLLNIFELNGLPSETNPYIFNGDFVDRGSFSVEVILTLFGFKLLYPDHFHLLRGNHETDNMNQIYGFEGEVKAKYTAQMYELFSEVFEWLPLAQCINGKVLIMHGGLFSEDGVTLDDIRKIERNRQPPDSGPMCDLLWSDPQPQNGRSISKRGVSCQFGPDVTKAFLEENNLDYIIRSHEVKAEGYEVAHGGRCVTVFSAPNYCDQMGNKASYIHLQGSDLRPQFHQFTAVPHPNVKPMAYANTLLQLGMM
SMILES,IC50,pIC50
CN1CCN(C(c2ccccn2)c2cc(Cl)c3cccnc3c2O)CC1 (stereo not given),> 50 µM (inactive),–
N#Cc1c(-c2ccc(Cl)cc2)cc(-c2cccs2)nc1SCC(=O)O,> 50 µM (inactive),–
CCn1c2ccccc2c2cc(NC(=O)COC(=O)c3ccc(NC(=O)CC#N)cc3)ccc21,> 50 µM (inactive),–
COc1ccc(NC(=O)C2C3CCC(O3)C2C(=O)O)c(OC)c1 (stereo not given),–,5.38
CCOC(=O)c1sc2nc3c(SCC(=O)O)cc(C(=O)c4cc(F)ccc4O)cn3c(=O)c2c1C,> 50 µM (inactive),–
